Experimental findings from patent US20240076297A1, “ADENOSINE A2A AND A2B RECEPTOR DUAL ANTAGONISTS FOR IMMUNO-ONCOLOGY” (Merck Sharp & Dohme LLC, priority 2020, published 2024) are described below.

Sequence of human A2A adenosine receptor (P29274 whole entry): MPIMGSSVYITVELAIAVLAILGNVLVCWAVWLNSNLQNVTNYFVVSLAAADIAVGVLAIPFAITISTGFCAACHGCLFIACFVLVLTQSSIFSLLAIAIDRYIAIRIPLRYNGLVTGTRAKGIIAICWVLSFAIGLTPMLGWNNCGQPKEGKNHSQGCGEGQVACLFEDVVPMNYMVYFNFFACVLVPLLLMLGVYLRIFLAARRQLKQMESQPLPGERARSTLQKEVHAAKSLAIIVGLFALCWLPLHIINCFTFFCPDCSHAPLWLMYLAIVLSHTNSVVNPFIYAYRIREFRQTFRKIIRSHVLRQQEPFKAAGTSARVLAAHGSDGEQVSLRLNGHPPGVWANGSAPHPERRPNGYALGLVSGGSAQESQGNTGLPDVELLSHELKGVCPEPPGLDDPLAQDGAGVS

The test concerns the target human A2A adenosine receptor (Homo sapiens (Human), UniProt P29274). Briefly: A2A binding affinity using radioligand binding, Method (A). As to conditions: Method (A): filtration radioligand binding, [3H] SCH58261, membranes expressing human A2A. The source says:
Method (A) describes the procedure used to measure A2A binding affinity using radioligand binding. Method (B) describes the procedure used to measure A2A binding affinity using SPA technology. The method used to measure A2B binding affinity is also described below. The method used to determine the A2A IC50 value reported for each compound in the table is indicated next to the reported value. The A2B IC50 value measured using the A2B binding affinity assay is shown in the table next to the compound under the corresponding A2A value.
The A2A receptor affinity binding assay measured the amount of binding of a tritiated ligand with high affinity for the A2A adenosine receptor to membranes made from HEK293 or CHO cells recombinantly expressing the human A2A adenosine receptor, in the presence of varying concentrations of a compound of the invention. The data were generated using either filtration binding or a homogenous scintillation proximity assay (SPA).
Method (A): Measurement of A2A Binding Affinity Using Radioligand Binding
148 μL (5 μg/mL) membranes (Perkin Elmer, Cat. No. RBHA2aM400UA) and 2 μL compounds of the invention to be tested (test compound) were transferred to individual wells of a 96-well polypropylene assay plate and incubated for 15 to 30 min at room temperature. [^3H] SCH58261 ((7-(2-phenylethyl)-5-amino-2-(2-furyl)-pyrazolo-[4,3-e]-1,2,4-triazolo[1,5-c]pyrimidine)) was diluted in assay buffer (50 mM Tris pH 7.4, 10 mM MgCl2, 0.005% Tween20) to a concentration of 4 nM and 50 μL transferred to each well of the assay plate. To define total and non-specific binding, wells containing 1% DMSO and 1 μM ZM241385 (Tocris Bioscience, Cat. No. 1036) respectively, were also included. The assay plate was incubated at room temperature for 60 min with agitation. Using a FilterMate Harvester® (Perkin Elmer), the contents of the assay plate were filtered through a UniFilter-96® PEI coated plate (Perkin Elmer Cat. No. 6005274 or 6005277). Filtering was achieved by aspirating the contents of the assay plate for 5 sec, then washing and aspirating the contents three times with ice-cooled wash buffer (50 mM Tris-HCl pH 7.4, 150 mM NaCl) and allowing the vacuum manifold to dry the plate for 30 sec. The filter plate was incubated for at least 1 h at 55° C. and allowed to dry. The bottom of the filter plate was sealed with backing tape. 40 μL Ultima Gold™ (Perkin Elmer, Cat. No. 6013329) was added to each well of the filter plate and the top of the plate was sealed with TopSeal-A PLUS® clear plate seal (Perkin Elmer, Cat. No. 6050185). The plate was incubated for at least 20 min, and then the amount of radioactivity remaining in each well was determined using a TopCount® (Perkin Elmer) scintillation counter. After normalization to total and non-specific binding, the percent effect at each compound concentration was calculated. The plot of percent effect versus the log of compound concentration was analyzed electronically using a 4-parameter logistic fit based on the Levenberg-Marquardt algorithm to generate IC50 values.
The IC50 is the concentration that gives 50% inhibition. Regarding `COc1cc(F)cc2c1nc(N)n1nc(CCC3(O)CCc4c(nnn4C4CC(F)(F)C4)C3)nc21` (single isomer, unassigned) [Example 14.3B, (R or S)-5-(2-(5-amino-9-fluoro-7-methoxy-[1,2,4]triazolo[1,5-c]quinazolin-2-yl)ethyl)-1-(3,3-difluorocyclobutyl)-4,5,6,7-tetrahydro-1H-benzo[d][1,2,3]triazol-5-ol], the IC50 was determined as 3.4 nM.

`COc1cccc2c1nc(N)n1nc(CCC3CCc4nn(C(C)C)cc4C3)nc21` (single isomer, unassigned) [Example 7.2B, (R or S)-2-(2-(2-isopropyl-4,5,6,7-tetrahydro-2H-indazol-5-yl)ethyl)-7-methoxy-[1,2,4]triazolo[1,5-c]quinazolin-5-amine] gave an IC50 of 2.3 nM.

In turn, `CC(C)(N)c1ccc([C@@H]2C[C@H]2Cc2nc3c4cc(F)cc(F)c4nc(N)n3n2)cc1` [Example 8.3A, 2-(((1S,2R)-2-(4-(2-aminopropan-2-yl)phenyl)cyclopropyl)methyl)-7,9-difluoro-[1,2,4]triazolo[1,5-c]quinazolin-5-amine] returned an IC50 of 38.1 nM.

`COc1cccc2c1nc(N)n1nc(CCOc3ccc(C(O)(C(F)(F)F)C(F)(F)F)cc3)nc21` [Example 9.1, 2-(4-(2-(5-amino-7-methoxy-[1,2,4]triazolo[1,5-c]quinazolin-2-yl)ethoxy)phenyl)-1,1,1,3,3,3-hexafluoropropan-2-ol] displayed an IC50 of 1.7 nM.

`COc1cc(F)cc2c1nc(N)n1nc(CCC3(O)CCc4c(nnn4C4CC(F)(F)C4)C3)nc21` (single isomer, unassigned) [Example 14.3A, (S or R)-5-(2-(5-amino-9-fluoro-7-methoxy-[1,2,4]triazolo[1,5-c]quinazolin-2-yl)ethyl)-1-(3,3-difluorocyclobutyl)-4,5,6,7-tetrahydro-1H-benzo[d][1,2,3]triazol-5-ol]: the IC50 amounted to 1.1 nM.

`COc1cccc2c1nc(N)n1nc(CCC3CCc4nn(C(C)C)cc4C3)nc21` (single isomer, unassigned) [Example 7.2A, (S or R)-2-(2-(2-isopropyl-4,5,6,7-tetrahydro-2H-indazol-5-yl)ethyl)-7-methoxy-[1,2,4]triazolo[1,5-c]quinazolin-5-amine] showed an IC50 of 2.5 nM.

As to `COc1cc(F)cc2c1nc(N)n1nc(CCC3CCn4c(cnc4C4(C(F)(F)F)CC4)C3)nc21` (single isomer, unassigned) [Example 12.3B, (R or S)-9-fluoro-7-methoxy-2-(2-(3-(1-(trifluoromethyl)cyclopropyl)-5,6,7,8-tetrahydroimidazo[1,5-a]pyridin-7-yl)ethyl)-[1,2,4]triazolo[1,5-c]quinazolin-5-amine], the IC50 came out at 6.7 nM.

As to `CCOC(=O)CCCn1cc(Cc2nc3c4cc(F)cc(OC)c4nc(N)n3n2)cn1` [Example 16.3, ethyl 4-(4-((5-amino-9-fluoro-7-methoxy-[1,2,4]triazolo[1,5-c]quinazolin-2-yl)methyl)-1H-pyrazol-1-yl)butanoate], the IC50 is 14.9 nM.

`COc1cccc2c1nc(N)n1nc(CCS(=N)(=O)C3CC3)nc21` (single isomer, unassigned) [Example 11.1A, (S or R)-(2-(5-amino-7-methoxy-[1,2,4]triazolo[1,5-c]quinazolin-2-yl)ethyl)(cyclopropyl)(imino)-26-sulfanone] came in with an IC50 of 1.2 nM.

`Nc1nc2c(F)cc(F)cc2c2nc(CCC3CCn4c(cnc4C4CC(F)(F)C4)C3)nn12` (single isomer, unassigned) [Example 7.4A, (S or R)-2-(2-(3-(3,3-difluorocyclobutyl)-5,6,7,8-tetrahydroimidazo-[1,5-a]pyridin-7-yl)ethyl)-7,9-difluoro-[1,2,4]triazolo[1,5-c]-quinazolin-5-amine]: the IC50 worked out at 31.6 nM.

As to `COc1cccc2c1nc(N)n1nc(CCC3CCc4c(nnn4C(C)C)C3)nc21` (single isomer, unassigned) [Example 5.2A, (S or R)-2-(2-(1-isopropyl-4,5,6,7-tetrahydro-1H-benzo[d][1,2,3]triazol-5-yl)ethyl)-7-methoxy-[1,2,4]triazolo[1,5-c]quinazolin-5-amine], the IC50 was 0.7 nM.

Turning to `COc1cc(F)cc2c1nc(N)n1nc(Cc3cnn(CCC(C)(C)O)c3)nc21` [Example 16.5, 4-(4-((5-amino-9-fluoro-7-methoxy-[1,2,4]triazolo[1,5-c]-quinazolin-2-yl)methyl)-1H-pyrazol-1-yl)-2-methylbutan-2-ol], the IC50 worked out at 43.4 nM.

For `COc1cccc2c1nc(N)n1nc(CC(C)(CO)CO)nc21` [Example 3.2, 2-((5-amino-7-methoxy-[1,2,4]triazolo[1,5-c]quinazolin-2-yl)methyl)-2-methylpropane-1,3-diol], the concentration for half-maximal inhibition (IC50) came out at 10.9 nM.

Compound `COc1cc(F)cc2c1nc(N)n1nc(CCC3CCn4c(cnc4C4CC(F)(F)C4)C3)nc21` (single isomer, unassigned) [Example 7.3A, (S or R)-2-(2-(3-(3,3-difluorocyclobutyl)-5,6,7,8-tetrahydroimidazo-[1,5-a]pyridin-7-yl)ethyl)-9-fluoro-7-methoxy-[1,2,4]triazolo[1,5-c]-quinazolin-5-amine] came in with an IC50 of 2.8 nM.

`CS(=O)(=O)CCCc1nc2c3cc(F)cc(F)c3nc(N)n2n1` [Example 13.19, 7,9-difluoro-2-(3-(methylsulfonyl)propyl)-[1,2,4]triazolo[1,5-c]quinazolin-5-amine] displayed an IC50 of 21.8 nM.

Regarding `COc1cccc2c1nc(N)n1nc(CCC3CCn4c(cnc4C4CC(F)(F)C4)C3)nc21` (single isomer, unassigned) [Example 7.5A, (S or R)-2-(2-(3-(3,3-difluorocyclobutyl)-5,6,7,8-tetrahydroimidazo-[1,5-a]pyridin-7-yl)ethyl)-7-methoxy-[1,2,4]triazolo[1,5-c]-quinazolin-5-amine], the IC50 was found to be 2.2 nM.

Regarding `COc1cc(F)cc2c1nc(N)n1nc(Cc3cnn(CCCC(C)(C)O)c3)nc21` [Example 16.4, 5-(4-((5-amino-9-fluoro-7-methoxy-[1,2,4]triazolo[1,5-c]quinazolin-2-yl)methyl)-1H-pyrazol-1-yl)-2-methylpentan-2-ol], the IC50 was found to be 15.3 nM.

The compound `COc1cccc2c1nc(N)n1nc(CCS(=N)(=O)C3CC3)nc21` (single isomer, unassigned) [Example 11.1B, (R or S)-(2-(5-amino-7-methoxy-[1,2,4]triazolo[1,5-c]quinazolin-2-yl)ethyl)(cyclopropyl)(imino)-λ^6-sulfanone] had an IC50 of 3.4 nM.

The compound `COc1cc(F)cc2c1nc(N)n1nc(CC3CC3c3ccc(C(C)(C)N)cc3)nc21` (single isomer, unassigned) [Example 8.4A, 2-(((1S, 2R or 1R,2S)-2-(4-(2-aminopropan-2-yl)phenyl)-cyclopropyl)methyl)-9-fluoro-7-methoxy-[1,2,4]triazolo-[1,5-c]quinazolin-5-amine] showed an IC50 of 10.2 nM.

`COc1cc(F)cc2c1nc(N)n1nc(CCC3CCn4c(cnc4C4(C(F)(F)F)CC4)C3)nc21` (single isomer, unassigned) [Example 12.3A, (S or R)-9-fluoro-7-methoxy-2-(2-(3-(1-(trifluoromethyl)cyclopropyl)-5,6,7,8-tetrahydroimidazo[1,5-a]pyridin-7-yl)ethyl)-[1,2,4]triazolo[1,5-c]quinazolin-5-amine] showed an IC50 of 5.7 nM.

`COc1ccc2c(c1)nc(N)n1nc(CCS(=O)(=O)C3CC3)nc21` [Example 13.6, 2-(2-(cyclopropylsulfonyl)ethyl)-8-methoxy-[1,2,4]triazolo[1,5-c]quinazolin-5-amine]: the IC50 was found to be 8.2 nM.

`COc1cccc2c1nc(N)n1nc(COC3CCc4c(nnn4C4CC(F)(F)C4)C3)nc21` (single isomer, unassigned) [Example 2.2A, (S or R)-2-(((1-(3,3-difluorocyclobutyl)-4,5,6,7-tetrahydro-1H-benzo[d][1,2,3]triazol-5-yl)oxy)methyl)-7-methoxy-[1,2,4]triazolo[1,5-c]quinazolin-5-amine] displayed an IC50 of 3.4 nM.

In turn, `COc1ccc(C2=COCCC2)c2c1nc(N)n1nc(CO)nc21` [Example 15.4, (5-amino-10-(3,4-dihydro-2H-pyran-5-yl)-7-methoxy-[1,2,4]triazolo[1,5-c]quinazolin-2-yl)methanol] came in with an IC50 of 2.7 nM.
